In patent US20140120232A1, “ACID TASTE/ACID SMELL-REDUCING AGENT” (T. HASEGAWA CO., LTD., priority 2011, published 2014):

Test: Sensory evaluation of Vermont drink containing the agent
Conditions: ten panels
Procedure, shortened: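 Tridecadienal or tridecatrienal isomers added at various concentrations to a Vermont-flavoured drink (apple-cider vinegar, honey, liquid sugar, citric acid, trisodium citrate, 100 mL total). Ten panelists assessed acid taste/acid smell and aldehyde-type off-odour, and the concentration giving the best acid taste/smell quality was selected.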

For `CCCCC/C=C\C/C=C\CCC=O` [(Z,Z)-4,7-tridecadienal], the “A: number of panels, acid taste/acid smell extreme and cause irritation” value (0.005 ppt) was 10, the “B: number of panels, acid taste/acid smell slightly strong and slightly cause irritation” value (0.005 ppt) was 0 and the “C: number of panels, acid taste/acid smell slightly unpleasant” value (0.005 ppt) was 0. The “Flavor judgment: number of panels who judged acid taste/acid smell quality the highest” value (0.005 ppt) was 0, the “N: number of panels, irritation of acid reduced to give a mild acid taste” value (0.005 ppt) was 0 and the “X: number of panels, acid taste reduced but piercing odor characteristic to aldehydes unpleasant” value (0.005 ppt) was 0. The “A: number of panels, acid taste/acid smell extreme and cause irritation” value (0.02 ppt) was 8, the “B: number of panels, acid taste/acid smell slightly strong and slightly cause irritation” value (0.02 ppt) was 1 and the “C: number of panels, acid taste/acid smell slightly unpleasant” value (0.02 ppt) was 1. The “Flavor judgment: number of panels who judged acid taste/acid smell quality the highest” value (0.02 ppt) was 0, the “N: number of panels, irritation of acid reduced to give a mild acid taste” value (0.02 ppt) was 0 and the “X: number of panels, acid taste reduced but piercing odor characteristic to aldehydes unpleasant” value (0.02 ppt) was 0. The “A: number of panels, acid taste/acid smell extreme and cause irritation” value (0.1 ppt) was 6, the “B: number of panels, acid taste/acid smell slightly strong and slightly cause irritation” value (0.1 ppt) was 2 and the “C: number of panels, acid taste/acid smell slightly unpleasant” value (0.1 ppt) was 2. The “Flavor judgment: number of panels who judged acid taste/acid smell quality the highest” value (0.1 ppt) was 0, the “N: number of panels, irritation of acid reduced to give a mild acid taste” value (0.1 ppt) was 0 and the “X: number of panels, acid taste reduced but piercing odor characteristic to aldehydes unpleasant” value (0.1 ppt) was 0. For the same compound, the “A: number of panels, acid taste/acid smell extreme and cause irritation” value (0.2 ppt) was 5, the “B: number of panels, acid taste/acid smell slightly strong and slightly cause irritation” value (0.2 ppt) was 3 and the “C: number of panels, acid taste/acid smell slightly unpleasant” value (0.2 ppt) was 2. The “Flavor judgment: number of panels who judged acid taste/acid smell quality the highest” value (0.2 ppt) was 0, the “N: number of panels, irritation of acid reduced to give a mild acid taste” value (0.2 ppt) was 0 and the “X: number of panels, acid taste reduced but piercing odor characteristic to aldehydes unpleasant” value (0.2 ppt) was 0. The “A: number of panels, acid taste/acid smell extreme and cause irritation” value (0.5 ppt) was 1, the “B: number of panels, acid taste/acid smell slightly strong and slightly cause irritation” value (0.5 ppt) was 1 and the “C: number of panels, acid taste/acid smell slightly unpleasant” value (0.5 ppt) was 3. For the same compound, the “Flavor judgment: number of panels who judged acid taste/acid smell quality the highest” value (0.5 ppt) was 1, the “N: number of panels, irritation of acid reduced to give a mild acid taste” value (0.5 ppt) was 5 and the “X: number of panels, acid taste reduced but piercing odor characteristic to aldehydes unpleasant” value (0.5 ppt) was 0. For the same compound, the “A: number of panels, acid taste/acid smell extreme and cause irritation” value (1 ppb) was 0, the “B: number of panels, acid taste/acid smell slightly strong and slightly cause irritation” value (1 ppb) was 0 and the “C: number of panels, acid taste/acid smell slightly unpleasant” value (1 ppb) was 3. For the same compound, the “Flavor judgment: number of panels who judged acid taste/acid smell quality the highest” value (1 ppb) was 0, the “N: number of panels, irritation of acid reduced to give a mild acid taste” value (1 ppb) was 3 and the “X: number of panels, acid taste reduced but piercing odor characteristic to aldehydes unpleasant” value (1 ppb) was 4. For the same compound, the “A: number of panels, acid taste/acid smell extreme and cause irritation” value (1 ppt) was 0, the “B: number of panels, acid taste/acid smell slightly strong and slightly cause irritation” value (1 ppt) was 1 and the “C: number of panels, acid taste/acid smell slightly unpleasant” value (1 ppt) was 3. For the same compound, the “Flavor judgment: number of panels who judged acid taste/acid smell quality the highest” value (1 ppt) was 2, the “N: number of panels, irritation of acid reduced to give a mild acid taste” value (1 ppt) was 6 and the “X: number of panels, acid taste reduced but piercing odor characteristic to aldehydes unpleasant” value (1 ppt) was 0. The “A: number of panels, acid taste/acid smell extreme and cause irritation” value (5 ppt) was 0, the “B: number of panels, acid taste/acid smell slightly strong and slightly cause irritation” value (5 ppt) was 1 and the “C: number of panels, acid taste/acid smell slightly unpleasant” value (5 ppt) was 2. For the same compound, the “Flavor judgment: number of panels who judged acid taste/acid smell quality the highest” value (5 ppt) was 4, the “N: number of panels, irritation of acid reduced to give a mild acid taste” value (5 ppt) was 7 and the “X: number of panels, acid taste reduced but piercing odor characteristic to aldehydes unpleasant” value (5 ppt) was 0. The “A: number of panels, acid taste/acid smell extreme and cause irritation” value (10 ppb) was 0, the “B: number of panels, acid taste/acid smell slightly strong and slightly cause irritation” value (10 ppb) was 1 and the “C: number of panels, acid taste/acid smell slightly unpleasant” value (10 ppb) was 2. The “Flavor judgment: number of panels who judged acid taste/acid smell quality the highest” value (10 ppb) was 0, the “N: number of panels, irritation of acid reduced to give a mild acid taste” value (10 ppb) was 2 and the “X: number of panels, acid taste reduced but piercing odor characteristic to aldehydes unpleasant” value (10 ppb) was 5. For the same compound, the “A: number of panels, acid taste/acid smell extreme and cause irritation” value (20 ppt) was 0, the “B: number of panels, acid taste/acid smell slightly strong and slightly cause irritation” value (20 ppt) was 0 and the “C: number of panels, acid taste/acid smell slightly unpleasant” value (20 ppt) was 3. The “Flavor judgment: number of panels who judged acid taste/acid smell quality the highest” value (20 ppt) was 3, the “N: number of panels, irritation of acid reduced to give a mild acid taste” value (20 ppt) was 6 and the “X: number of panels, acid taste reduced but piercing odor characteristic to aldehydes unpleasant” value (20 ppt) was 1. The “A: number of panels, acid taste/acid smell extreme and cause irritation” value (50 ppb) was 0, the “B: number of panels, acid taste/acid smell slightly strong and slightly cause irritation” value (50 ppb) was 0 and the “C: number of panels, acid taste/acid smell slightly unpleasant” value (50 ppb) was 1. For the same compound, the “Flavor judgment: number of panels who judged acid taste/acid smell quality the highest” value (50 ppb) was 0, the “N: number of panels, irritation of acid reduced to give a mild acid taste” value (50 ppb) was 2 and the “X: number of panels, acid taste reduced but piercing odor characteristic to aldehydes unpleasant” value (50 ppb) was 7. The “A: number of panels, acid taste/acid smell extreme and cause irritation” value (100 ppt) was 0, the “B: number of panels, acid taste/acid smell slightly strong and slightly cause irritation” value (100 ppt) was 1 and the “C: number of panels, acid taste/acid smell slightly unpleasant” value (100 ppt) was 3. For the same compound, the “Flavor judgment: number of panels who judged acid taste/acid smell quality the highest” value (100 ppt) was 0, the “N: number of panels, irritation of acid reduced to give a mild acid taste” value (100 ppt) was 4 and the “X: number of panels, acid taste reduced but piercing odor characteristic to aldehydes unpleasant” value (100 ppt) was 2. For the same compound, the “A: number of panels, acid taste/acid smell extreme and cause irritation” value (500 ppt) was 0, the “B: number of panels, acid taste/acid smell slightly strong and slightly cause irritation” value (500 ppt) was 2 and the “C: number of panels, acid taste/acid smell slightly unpleasant” value (500 ppt) was 2. The “Flavor judgment: number of panels who judged acid taste/acid smell quality the highest” value (500 ppt) was 0, the “N: number of panels, irritation of acid reduced to give a mild acid taste” value (500 ppt) was 4 and the “X: number of panels, acid taste reduced but piercing odor characteristic to aldehydes unpleasant” value (500 ppt) was 2.
